# Reference: PMC5218480 (PLoS ONE, 2017)
# System: MV-4-11 cells
# Experiment: Gene expression microarray analysis (Affymetrix PrimeView) and GSEA
# Format: cell-based, human
# Parameters: RFU PODN (11730768_x_at) / Fold change /veh PODN (11730768_x_at) / RFU LINC00158 (11744669_a_at) / Fold change /veh LINC00158 (11744669_a_at) / RFU DUSP10 (11751237_a_at) / Fold change /veh DUSP10 (11751237_a_at) / RFU ID3 (11757404_x_at) / Fold change /veh ID3 (11757404_x_at) / RFU PLEKHG5 (11737974_s_at) / Fold change /veh PLEKHG5 (11737974_s_at) / RFU LRRC4B (11730491_at) / Fold change /veh LRRC4B (11730491_at) / RFU GIMAP4 (11747438_a_at) / Fold change /veh GIMAP4 (11747438_a_at) / RFU KRT8 (11758183_x_at) / Fold change /veh KRT8 (11758183_x_at) / RFU CNN1 (11734310_a_at) / Fold change /veh CNN1 (11734310_a_at) / RFU VPS37D (11726825_at) / Fold change /veh VPS37D (11726825_at) / RFU C10orf10 (11716522_x_at) / Fold change /veh C10orf10 (11716522_x_at) / RFU KIR2DL2 /// KIR2DL4 /// KIR2DL5A /// KIR2DL5B /// KIR2DS1 /// KIR2DS2 /// KIR2DS3 /// KIR2DS4 /// KIR3DL3 /// KIR3DL3 /// KIR3DS1 (11738374_at) / Fold change /veh KIR2DL2 /// KIR2DL4 /// KIR2DL5A /// KIR2DL5B /// KIR2DS1 /// KIR2DS2 /// KIR2DS3 /// KIR2DS4 /// KIR3DL3 /// KIR3DL3 /// KIR3DS1 (11738374_at) / RFU C1QL1 (11718748_at) / Fold change /veh C1QL1 (11718748_at) / RFU TMPRSS4 (11747572_a_at) / Fold change /veh TMPRSS4 (11747572_a_at) / RFU HAMP (11756126_x_at) / Fold change /veh HAMP (11756126_x_at) / RFU RNFT2 (11725882_a_at) / Fold change /veh RNFT2 (11725882_a_at) / RFU NR4A2 (11747474_a_at) / Fold change /veh NR4A2 (11747474_a_at) / RFU ABCC12 (11746883_a_at) / Fold change /veh ABCC12 (11746883_a_at) / RFU TMEM136 (11760407_x_at) / Fold change /veh TMEM136 (11760407_x_at) / RFU CLDN22 /// WWC2 (11732394_at) / Fold change /veh CLDN22 /// WWC2 (11732394_at) / RFU HLA-DPB1 (11760878_x_at) / Fold change /veh HLA-DPB1 (11760878_x_at) / RFU SPINT1 (11716480_a_at) / Fold change /veh SPINT1 (11716480_a_at) / RFU GAP43 (11754022_s_at) / Fold change /veh GAP43 (11754022_s_at) / RFU A4GNT (11735810_at) / Fold change /veh A4GNT (11735810_at) / RFU PRB3 (11715151_x_at) / Fold change /veh PRB3 (11715151_x_at) / RFU TUBB4B (11761932_at) / Fold change /veh TUBB4B (11761932_at) / RFU CAPN14 (11732068_a_at) / Fold change /veh CAPN14 (11732068_a_at) / RFU TMCC2 (11721928_a_at) / Fold change /veh TMCC2 (11721928_a_at) / RFU IRGQ (11745062_a_at) / Fold change /veh IRGQ (11745062_a_at) / RFU FAM174B (11720279_a_at) / Fold change /veh FAM174B (11720279_a_at) / RFU TMPRSS4 (11748680_a_at) / Fold change /veh TMPRSS4 (11748680_a_at) / RFU FAM212B (11763350_a_at) / Fold change /veh FAM212B (11763350_a_at) / RFU PLEKHG5 (11743358_a_at) / Fold change /veh PLEKHG5 (11743358_a_at) / RFU ZSCAN30 (11745921_a_at) / Fold change /veh ZSCAN30 (11745921_a_at) / RFU CMKLR1 (11741424_a_at) / Fold change /veh CMKLR1 (11741424_a_at) / RFU LOC101060620 /// MAPK8IP1 (11723275_at) / Fold change /veh LOC101060620 /// MAPK8IP1 (11723275_at) / RFU SPTSSB (11747773_x_at) / Fold change /veh SPTSSB (11747773_x_at) / RFU PRSS12 (11739890_at) / Fold change /veh PRSS12 (11739890_at) / RFU BIN1 (11741810_x_at) / Fold change /veh BIN1 (11741810_x_at) / RFU WNT11 (11732464_a_at) / Fold change /veh WNT11 (11732464_a_at) / RFU C10orf10 (11716521_a_at) / Fold change /veh C10orf10 (11716521_a_at) / RFU C5orf56 (11738089_at) / Fold change /veh C5orf56 (11738089_at) / RFU CYB561 (11721691_x_at) / Fold change /veh CYB561 (11721691_x_at) / RFU ANKRD19P (11752326_a_at) / Fold change /veh ANKRD19P (11752326_a_at) / RFU OR2T12 /// OR2T33 /// OR2T8 (11738714_s_at) / Fold change /veh OR2T12 /// OR2T33 /// OR2T8 (11738714_s_at) / RFU VCAN (11748164_a_at) / Fold change /veh VCAN (11748164_a_at) / RFU JSRP1 (11732532_at) / Fold change /veh JSRP1 (11732532_at) / RFU KRTAP10-11 (11738290_x_at) / Fold change /veh KRTAP10-11 (11738290_x_at) / RFU MYO3A (11730013_a_at) / Fold change /veh MYO3A (11730013_a_at) / RFU EBF3 (11725865_a_at) / Fold change /veh EBF3 (11725865_a_at) / RFU CAMK2N1 (11719241_x_at) / Fold change /veh CAMK2N1 (11719241_x_at) / RFU C5orf56 (11738088_a_at) / Fold change /veh C5orf56 (11738088_a_at) / RFU OLFML3 (11715873_a_at) / Fold change /veh OLFML3 (11715873_a_at) / RFU LOC100653217 /// NTM (11731650_a_at) / Fold change /veh LOC100653217 /// NTM (11731650_a_at) / RFU MAPK11 (11762145_a_at) / Fold change /veh MAPK11 (11762145_a_at) / RFU FIZ1 (11724087_x_at) / Fold change /veh FIZ1 (11724087_x_at) / RFU OASL (11726364_x_at) / Fold change /veh OASL (11726364_x_at) / RFU SOX15 (11748057_x_at) / Fold change /veh SOX15 (11748057_x_at) / RFU CD79A (11719716_a_at) / Fold change /veh CD79A (11719716_a_at) / RFU HIST1H1D (11736915_at) / Fold change /veh HIST1H1D (11736915_at) / RFU CASKIN2 (11723855_a_at) / Fold change /veh CASKIN2 (11723855_a_at) / RFU LOC730098 (11760151_x_at) / Fold change /veh LOC730098 (11760151_x_at) / RFU OR4N2 (11742367_at) / Fold change /veh OR4N2 (11742367_at) / RFU PRRT2 (11749266_a_at) / Fold change /veh PRRT2 (11749266_a_at) / RFU SNX32 (11753110_a_at) / Fold change /veh SNX32 (11753110_a_at) / RFU CDHR5 (11726645_a_at) / Fold change /veh CDHR5 (11726645_a_at) / RFU RCAN1 (11760418_a_at) / Fold change /veh RCAN1 (11760418_a_at) / RFU FAM167A (11723789_a_at) / Fold change /veh FAM167A (11723789_a_at) / RFU FAM26E (11764081_at) / Fold change /veh FAM26E (11764081_at) / RFU ISYNA1 (11749810_s_at) / Fold change /veh ISYNA1 (11749810_s_at) / RFU ACY1 (11761880_at) / Fold change /veh ACY1 (11761880_at) / RFU 11764098_at / Fold change /veh 11764098_at / RFU SAMD14 (11745864_x_at) / Fold change /veh SAMD14 (11745864_x_at) / RFU NPB (11741838_a_at) / Fold change /veh NPB (11741838_a_at) / RFU TMPRSS6 (11731388_a_at) / Fold change /veh TMPRSS6 (11731388_a_at) / RFU KRTAP10-2 (11738614_at) / Fold change /veh KRTAP10-2 (11738614_at) / RFU ARHGAP8 /// PRR5-ARHGAP8 (11727945_x_at) / Fold change /veh ARHGAP8 /// PRR5-ARHGAP8 (11727945_x_at) / RFU KRTAP5-7 /// NADSYN1 (11734609_at) / Fold change /veh KRTAP5-7 /// NADSYN1 (11734609_at) / RFU RASL12 (11751679_a_at) / Fold change /veh RASL12 (11751679_a_at) / RFU CDKN2B (11736163_a_at) / Fold change /veh CDKN2B (11736163_a_at) / RFU PRF1 (11729649_at) / Fold change /veh PRF1 (11729649_at) / RFU, ZNF638 /// ZNF638-IT1 / Fold change vs veh, ZNF638 /// ZNF638-IT1 / RFU, PANK3 / Fold change vs veh, PANK3 / RFU, SH3YL1 / Fold change vs veh, SH3YL1 / RFU, ZEB2 / Fold change vs veh, ZEB2 / RFU, NRIP1 / Fold change vs veh, NRIP1 / RFU, PTTG1IP / Fold change vs veh, PTTG1IP / RFU, CAPN2 / Fold change vs veh, CAPN2 / RFU, MED14 / Fold change vs veh, MED14 / RFU, SNORA58 / Fold change vs veh, SNORA58 / RFU, C1orf63 / Fold change vs veh, C1orf63 / RFU, LRRFIP1 / Fold change vs veh, LRRFIP1 / RFU, NDUFAF7 / Fold change vs veh, NDUFAF7 / RFU, SLC12A2 / Fold change vs veh, SLC12A2 / RFU, IBTK / Fold change vs veh, IBTK / RFU, ESF1 / Fold change vs veh, ESF1 / Fold change vs veh, TMEM50B / RFU, TAOK1 / Fold change vs veh, TAOK1 / RFU, ACBD3 / Fold change vs veh, ACBD3 / RFU, TMA16 / Fold change vs veh, TMA16 / RFU, RWDD3 / Fold change vs veh, RWDD3 / RFU, BCAT1 / Fold change vs veh, BCAT1 / RFU, EDEM3 / Fold change vs veh, EDEM3 / RFU, TMEM33 / Fold change vs veh, TMEM33 / RFU, WDR75 / Fold change vs veh, WDR75 / RFU, AHCTF1 / Fold change vs veh, AHCTF1 / RFU, TFRC / Fold change vs veh, TFRC / RFU, ZDHHC17 / Fold change vs veh, ZDHHC17 / RFU, NOM1 / Fold change vs veh, NOM1 / RFU, ARL8B / Fold change vs veh, ARL8B / RFU, ZBTB11 / Fold change vs veh, ZBTB11 / RFU, TAMM41 / Fold change vs veh, TAMM41 / RFU, KIAA1704 /// LOC100996395 / Fold change vs veh, KIAA1704 /// LOC100996395 / RFU, ING1 / Fold change vs veh, ING1 / RFU, TRMT61B / Fold change vs veh, TRMT61B / RFU, FUBP3 / Fold change vs veh, FUBP3 / RFU, TP53 / Fold change vs veh, TP53 / RFU, TNKS2 / Fold change vs veh, TNKS2 / RFU, ZFP14 / Fold change vs veh, ZFP14 / RFU, ACTR2 / Fold change vs veh, ACTR2 / RFU, PPP3R1 / Fold change vs veh, PPP3R1 / RFU, PIK3R1 / Fold change vs veh, PIK3R1 / RFU, HNRNPA1 / Fold change vs veh, HNRNPA1 / RFU, RNF170 / Fold change vs veh, RNF170 / RFU, ZNF28 / Fold change vs veh, ZNF28 / RFU, RNGTT / Fold change vs veh, RNGTT / RFU, OGT / Fold change vs veh, OGT / RFU, BRD1 / Fold change vs veh, BRD1 / RFU, MARS / Fold change vs veh, MARS / RFU, ZNF655 / Fold change vs veh, ZNF655 / RFU, FAHD1 / Fold change vs veh, FAHD1 / RFU, BDP1 / Fold change vs veh, BDP1 / RFU, LRRCC1 / Fold change vs veh, LRRCC1 / RFU, ARID1A / Fold change vs veh, ARID1A / RFU, ZNF146 / Fold change vs veh, ZNF146 / RFU, ZNF330 / Fold change vs veh, ZNF330 / RFU, GPN3 / Fold change vs veh, GPN3 / RFU, C9orf123 / Fold change vs veh, C9orf123 / RFU, N4BP2L2 / Fold change vs veh, N4BP2L2 / RFU, ARFIP1 / Fold change vs veh, ARFIP1 / RFU, FAM179B / Fold change vs veh, FAM179B / RFU, BCL10 / Fold change vs veh, BCL10 / RFU, UHRF1BP1L / Fold change vs veh, UHRF1BP1L / RFU, BET1 / Fold change vs veh, BET1 / RFU, CNOT2 / Fold change vs veh, CNOT2 / RFU, ZNF268 / Fold change vs veh, ZNF268 / Fold change vs veh, ZNF507 / RFU, DGCR2 / Fold change vs veh, DGCR2 / RFU, WDSUB1 / Fold change vs veh, WDSUB1 / Fold change vs veh, HSP90B1 /// MIR3652 / RFU, ADSS / Fold change vs veh, ADSS / RFU, GK / Fold change vs veh, GK / RFU, ZNF148 / Fold change vs veh, ZNF148 / RFU, TAF9 / Fold change vs veh, TAF9 / RFU, SLC1A5 / Fold change vs veh, SLC1A5 / RFU, SLMO2 / Fold change vs veh, SLMO2 / RFU, ABCC4 / Fold change vs veh, ABCC4 / RFU, LOC101060439 /// RAP1B / Fold change vs veh, LOC101060439 /// RAP1B / RFU, RFX7 / Fold change vs veh, RFX7 / RFU, GTPBP10 / Fold change vs veh, GTPBP10 / RFU, CNEP1R1 / Fold change vs veh, CNEP1R1 / RFU, BIVM-ERCC5 /// ERCC5 / Fold change vs veh, BIVM-ERCC5 /// ERCC5 / RFU, ILF3 / Fold change vs veh, ILF3 / RFU 11762660_at / Fold change /veh 11762660_at / RFU VCAN (11757783_s_at) / Fold change /veh VCAN (11757783_s_at) / RFU DDX43 (11728927_at) / Fold change /veh DDX43 (11728927_at) / RFU KRT8 (11758188_x_at) / Fold change /veh KRT8 (11758188_x_at) / RFU NKD1 (11759106_at) / Fold change /veh NKD1 (11759106_at) / RFU SRD5A1 (11742802_a_at) / Fold change /veh SRD5A1 (11742802_a_at) / RFU TPSAB1 /// TPSB2 (11721975_s_at) / Fold change /veh TPSAB1 /// TPSB2 (11721975_s_at) / RFU GSTM3 (11746129_a_at) / Fold change /veh GSTM3 (11746129_a_at) / RFU IL23R (11737362_x_at) / Fold change /veh IL23R (11737362_x_at) / RFU TMEM51 (11727254_a_at) / Fold change /veh TMEM51 (11727254_a_at) / RFU PIWIL2 (11732686_x_at) / Fold change /veh PIWIL2 (11732686_x_at) / RFU ORM1 (11744905_x_at) / Fold change /veh ORM1 (11744905_x_at) / RFU CCDC152 (11743942_at) / Fold change /veh CCDC152 (11743942_at) / RFU ECM1 (11717891_a_at) / Fold change /veh ECM1 (11717891_a_at) / RFU IL23R (11748794_a_at) / Fold change /veh IL23R (11748794_a_at) / RFU TNFAIP8L3 (11732012_x_at) / Fold change /veh TNFAIP8L3 (11732012_x_at) / RFU MBOAT4 (11741988_at) / Fold change /veh MBOAT4 (11741988_at) / RFU 11764193_at / Fold change /veh 11764193_at / RFU TMEM53 (11763286_at) / Fold change /veh TMEM53 (11763286_at) / RFU MAGEB2 (11727129_at) / Fold change /veh MAGEB2 (11727129_at) / RFU TMEM200A (11744735_a_at) / Fold change /veh TMEM200A (11744735_a_at) / RFU CCDC152 (11751479_a_at) / Fold change /veh CCDC152 (11751479_a_at) / RFU FAM211A (11726209_a_at) / Fold change /veh FAM211A (11726209_a_at) / RFU RGS16 (11746705_a_at) / Fold change /veh RGS16 (11746705_a_at) / RFU VCAN (11755009_s_at) / Fold change /veh VCAN (11755009_s_at) / RFU RHOB (11743442_s_at) / Fold change /veh RHOB (11743442_s_at) / RFU RGS16 (11720943_a_at) / Fold change /veh RGS16 (11720943_a_at) / RFU RGS16 (11720944_at) / Fold change /veh RGS16 (11720944_at) / RFU, VPS4B / Fold change vs veh, VPS4B / RFU, CREB1 / Fold change vs veh, CREB1 / RFU, DNAJC13 / Fold change vs veh, DNAJC13 / RFU, GNAQ / Fold change vs veh, GNAQ / RFU, CDK5R1 / Fold change vs veh, CDK5R1 / RFU, ZRANB3 / Fold change vs veh, ZRANB3 / RFU, CUL4A / Fold change vs veh, CUL4A / RFU, CCNY / Fold change vs veh, CCNY / RFU, UFL1 / Fold change vs veh, UFL1 / RFU, COG3 / Fold change vs veh, COG3 / RFU, DIAPH2 / Fold change vs veh, DIAPH2 / RFU, SKA2 / Fold change vs veh, SKA2 / RFU, AFF3 / Fold change vs veh, AFF3 / RFU, LMF1 / Fold change vs veh, LMF1 / RFU, IPO11 / Fold change vs veh, IPO11 / RFU, DFFB / Fold change vs veh, DFFB / RFU, FOXP1 / Fold change vs veh, FOXP1 / RFU, CARD8 / Fold change vs veh, CARD8 / RFU, STRN3 / Fold change vs veh, STRN3 / RFU, ADK / Fold change vs veh, ADK / RFU, RASSF2 / Fold change vs veh, RASSF2 / RFU, WIPF1 / Fold change vs veh, WIPF1 / RFU, LARP1B / Fold change vs veh, LARP1B / RFU, RASA1 / Fold change vs veh, RASA1 / RFU, RB1 / Fold change vs veh, RB1 / RFU, PPFIA1 / Fold change vs veh, PPFIA1 / RFU, MAT2A / Fold change vs veh, MAT2A / RFU, CCT5 / Fold change vs veh, CCT5 / RFU, WDR92 / Fold change vs veh, WDR92 / RFU, CUX1 / Fold change vs veh, CUX1 / RFU, TTC7A / Fold change vs veh, TTC7A / RFU, TMEM135 / Fold change vs veh, TMEM135 / RFU, DEPTOR / Fold change vs veh, DEPTOR / RFU, CPM / Fold change vs veh, CPM / RFU, DNAJB6 / Fold change vs veh, DNAJB6 / RFU, CACNA2D3 / Fold change vs veh, CACNA2D3 / RFU, DTX4 / Fold change vs veh, DTX4 / RFU, TFCP2 / Fold change vs veh, TFCP2 / RFU, GMCL1 /// GMCL1P1 / Fold change vs veh, GMCL1 /// GMCL1P1 / RFU, AEBP2 / Fold change vs veh, AEBP2 / RFU, SNHG1 /// SNORD22 /// SNORD25 /// SNORD26 /// SNORD27 /// SNORD28 /// SNORD29 /// SNORD31 / Fold change vs veh, SNHG1 /// SNORD22 /// SNORD25 /// SNORD26 /// SNORD27 /// SNORD28 /// SNORD29 /// SNORD31 / Fold change (Aza/veh), C12orf56 (ProbeSet 11735607_a_at) / Fold change (ACY-1035/veh), C12orf56 (ProbeSet 11735607_a_at) / Fold change (Aza/veh), FGFR1OP (ProbeSet 11751329_s_at) / Fold change (ACY-1035/veh), FGFR1OP (ProbeSet 11751329_s_at) / Fold change (Aza/veh), VPS36 (ProbeSet 11739960_a_at) / Fold change (ACY-1035/veh), VPS36 (ProbeSet 11739960_a_at) / RFU SYPL1 (11715823_x_at) / Fold change /veh SYPL1 (11715823_x_at) / RFU IGFBP7 (11715501_s_at) / Fold change /veh IGFBP7 (11715501_s_at) / RFU REEP3 (11722064_at) / Fold change /veh REEP3 (11722064_at) / RFU IGLL1 (11728026_x_at) / Fold change /veh IGLL1 (11728026_x_at): dose or concentration left out as unconfirmed
# Details: MV-4-11 cells, 48 hours
compound,measurement,value
Nc1ncn([C@@H]2O[C@H](CO)[C@@H](O)[C@H]2O)c(=O)n1 [azacitidine],RFU CDKN2B (11736163_a_at),8.51 RFU
